Assay results: article PMC5378956, “Inhibition of delta-secretase improves cognitive functions in mouse models of Alzheimer's disease” (Nature Communications, 2017)

Columns and labels:
primary neurons = assay: LDH release of primary neurons after OGD; type: cell-based, mouse
5XFAD mice [1] = test system: 5XFAD mice
Experimental: Only 2-month-old male mice were used in the present study. Sample size was determined by Power and Precision (Biostat). The animals were randomly allocated to experimental groups. Investigators were blinded to the group allocation during the animal experiments. […] The protocol was reviewed and approved by the Emory Institutional Animal Care and Use Committee. Rabbit anti-tau N368 (1:1,000), and anti-APP585N (1:500) antibody, which specifically recognize the δ-secretase-derived tau and APP fragments respectively, were described previously. […] TUNEL in situ cell death detection kit was from Roche (Indianapolis, IN). […] All chemicals not included above were purchased from Sigma-Aldrich (St. Louis, MO). Recombinant δ-secretase was obtained from Sino Biological (Beijing, China), recombinant cathepsin-S was obtained from Athens Research and Technology (Athens, GA), recombinant caspase-3 and caspase-8 were obtained from Millipore (Billerica, MA).
The mice were trained in a round, water-filled tub (52′ diameter) in an environment rich with extra maze cues. An invisible escape platform was located in a fixed spatial location 1 cm below the water surface independent of a subject's start position on a particular trial. In this manner, subjects needed to utilize extra maze cues to determine the platform's location. At the beginning of each trial, the mouse was placed in the water maze with their paws touching the wall from 1 of 4 different starting positions (N, S, E, W). […] On reaching the invisible escape platform, subjects were left on it for an additional 5 s to allow for survey of the spatial cues in the environment to guide future navigation to the platform. After each trial, subjects were dried and kept in a dry plastic holding cage filled with paper towels to allow the subjects to dry off. The temperature of the water was monitored every hour so that mice were tested in water that was between 22 and 25 °C. Following the 5 days of task acquisition, a probe trial was presented during which the platform was removed. The percentage of time that was spent in the quadrant, which previously contained the escape platform during task acquisition, was measured over 60 s. All trials were analysed for latency, swim path length and swim speed by means of MazeScan (Clever Sys, Inc.).
After rinsed in distilled water, the sections were transferred to blocking solution (1% sodium hydroxide and 0.9% hydrogen peroxide) for 20 min. […] The sections were washed with 50% ethanol and placed in distilled water. Then the sections were covered with glass cover using mounting solution.
To detect the Aβ deposition in 5XFAD mice, the mice brains were homogenized in 8 × mass of 5 M guanidine HCl/50 mM Tris–HCl (pH 8.0), and incubated at room temperature for 3 h. Then the samples were diluted with cold reaction buffer (phosphate buffered saline with 5% BSA and 0.03% Tween 20, supplemented with protease inhibitor cocktail) and centrifuged at 16,000g for 20 min at 4 °C. The supernatant were analysed by human Aβ42 and Aβ40 ELISA kit according to the manufacturer's instructions (KHB3441 and KHB3481, Invitrogen). The Aβ42 and Aβ40 concentrations were determined by comparison with the standard curve. The concentrations of IL-1β and TNFα in the mice brain were detected using mouse IL-1β and TNFα ELISA kit from eBioscience according to the manufacture's instructions.

5XFAD mice [2] = settings: 5 or 10 mg kg-1 oral; 1, 2, 4 h
[3] = Single-dose pharmacokinetics, IV and oral; settings: for serum concentration: all three animals
Source text: Two months old CD-1 male mice were orally
serum was collected at indicated time points with each group of 3 mice (mean ± s.d.).

[4] = Serum and brain level after chronic oral dosing; settings: tau P301S, mouse, in vivo, oral 10 mg kg-1d-1, 3 months, 1 hour after last dose
δ-secretase = target: T1, δ-secretase (Homo sapiens, UniProt Q99538); assay: DTT and L-cysteine reversibility of δ-secretase inhibition; type: biochemical; settings: 10 mM DTT or L-cysteine, inhibitor at its IC50
T1 construct: tested with purified active δ-secretase, IC50 values for the top 8 candidates were calculated; purchased Sino Biological (Beijing, China)
T1 sequence (Q99538 18-323 limits assumed): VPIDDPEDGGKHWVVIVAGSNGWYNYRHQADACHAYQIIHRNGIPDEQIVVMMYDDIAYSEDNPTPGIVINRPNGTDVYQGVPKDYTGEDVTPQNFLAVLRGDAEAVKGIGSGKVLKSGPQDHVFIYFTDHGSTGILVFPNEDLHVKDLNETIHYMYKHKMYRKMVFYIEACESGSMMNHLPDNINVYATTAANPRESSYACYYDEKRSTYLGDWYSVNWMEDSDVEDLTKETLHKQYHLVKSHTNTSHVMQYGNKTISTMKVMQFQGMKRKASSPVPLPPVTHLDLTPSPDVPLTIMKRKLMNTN

[5] = male, CD-1, mouse, in vivo, iv, 2 mg kg-1
[6] = male, CD-1, mouse, in vivo, po, 10 mg kg-1
[7] = male, CD-1, mouse, serum, iv, 2 mg/kg
[8] = male, CD-1, mouse, serum, po, 10 mg/kg

SMILES: Nc1ccc(N2CCOCC2)c2nonc12 [compound 11, 7-(morpholin-4-yl)-2,1,3-benzoxadiazol-4-amine]
- OGD-induced cell toxicity in neurons from 5XFAD or tau P301S mice (primary neurons; cultured neurons from 5XFAD mice or tau P301S mice): attenuated OGD-induced cell toxicity
- neuronal injury induced by OGD in δ-secretase knockout neurons (primary neurons; neurons from δ-secretase knockout mice): did not further protect
- neuronal injury (LDH in medium) induced by OGD (primary neurons; wild-type neurons): attenuated neuronal injury
- Aβ deposition, time and dose dependence (5XFAD mice [1]; 2, 5 or 10 mg kg−1 d−1 for 1.5 and 3 months): attenuated Aβ deposition in a time- and dose-dependent manner
- concentrations of IL-1β and TNFα (5XFAD mice [1]; 5XFAD mice): reduced the concentrations of inflammatory cytokines IL-1β and TNFα
- activity of δ-secretase in mice brain (5XFAD mice [1]; 5XFAD, oral once daily, 3 months): significantly inhibited
- concentrations of Aβ 1–40 and Aβ 1–42 in brain lysates (5XFAD mice [1]; ELISA): significantly decreased
- cleavage of APP by δ-secretase at N373 and N585 (5XFAD mice [1]; Western blot): decreased the cleavage of APP
- Morris water maze distance to platform (5XFAD mice [1]; acquisition): decreased distance to platform
- LTP deficits (5XFAD mice [1]; mouse, in vivo): significantly reversed the LTP deficits
- density of spines (Golgi stain) (5XFAD mice [1]; mouse, in vivo): increased the density of spines
- expression of C83 (5XFAD mice [1]; mouse, in vivo): not altered
- expression of C99 (5XFAD mice [1]; mouse, in vivo): decreased
- plaque deposition in hippocampus and frontal cortex (Thioflavin S) (5XFAD mice [1]; mouse, in vivo): attenuated
- probe test, time in target quadrant (5XFAD mice [1]; mouse, in vivo): spent more time in the target quadrant
- swim speed (5XFAD mice [1]; mouse, in vivo): not affected
- concentrations of Aβ in plasma and brain after single dose (5XFAD mice [2]): time- and dose-dependently decreased
- serum concentration ([3]; IV 2 mg kg-1, 8.00 h): BLQ
- serum concentration ([3]; IV 2 mg kg-1, 24.00 h): BLQ
- concentration at 0.08 h [3, 5]: 230 ng/mL
- concentration at 0.5 h [3, 5]: 13.3 ng/mL
- concentration at 1 h [3, 5]: 3.5 ng/mL
- concentration at 2 h [3, 5]: 3.8 ng/mL
- concentration at 4 h [3, 5]: 3.1 ng/mL
- concentration at 0.5 h [3, 6]: 81.1 ng/mL
- concentration at 1 h [3, 6]: 27.2 ng/mL
- concentration at 2 h [3, 6]: 13.3 ng/mL
- concentration at 4 h [3, 6]: 11.6 ng/mL
- concentration at 8 h [3, 6]: 3.8 ng/mL
- AUC(0-inf) [3, 7]: 61.2 ng·h/mL
- AUC(0-t) [3, 7]: 61.1 ng·h/mL
- Cmax [3, 7]: 230 ng/mL
- MRT last [3, 7]: 18 min
- Vd [3, 7]: 10.8 L/kg
- clearance [3, 7]: 554 mL/min/kg
- half-life [3, 7]: 13.2 min
- bioavailability ([3]; male, CD-1, mouse, serum, oral, 10 mg kg-1, F (oral bioavailability), mean, oral 10 mg kg-1 vs IV 2 mg kg-1): 69%
- AUC(0-inf) [3, 8]: 223 ng·h/mL
- AUC(0-t) [3, 8]: 211 ng·h/mL
- CL/F [3, 8]: 824 mL/min/kg
- Cmax [3, 8]: 447 ng/mL
- MRT last [3, 8]: 69 min
- Tmax [3, 8]: 15 min
- Vd/F [3, 8]: 134 L/kg
- half-life [3, 8]: 139 min
- serum concentration ([3]; oral 10 mg kg-1, 24.00 h): BLQ
- F (oral bioavailability), mean ([3]; oral 10 mg kg-1 vs IV 2 mg kg-1): ~70%
- concentration at 1 h ([4]; 10 mg kg-1d-1, Compound #11 in the serum, Sample #1): 184 ng/mL
- concentration at 1 h ([4]; 10 mg kg-1d-1, Compound #11 in the serum, Sample #2): 59 ng/mL
- concentration at 1 h ([4]; 10 mg kg-1d-1, Concentration in the brain, Sample #1): 206 ng/g
- concentration at 1 h ([4]; 10 mg kg-1d-1, Concentration in the brain, Sample #2): 87 ng/g

SMILES: Cn1c(=O)[nH]c(=O)c2c1nc(S)n2CC(O)COc1ccc(Cl)cc1 (stereo not shown) [compound 38]
- recovery of δ-secretase activity on addition of reducing agents (δ-secretase): regained a substantial amount of activity
